Assay results published in ChEMBL document CHEMBL5131534, “Identification of 2-Pyridinylindole-Based Dual Antagonists of Toll-like Receptors 7 and 8 (TLR7/8)” (ACS Med Chem Lett, 2022).

Columns and labels:
Homo sapiens = species on record: Homo sapiens; test: Selectivity ratio of IC50 for human TLR9 to IC50 for human TLR7
Toll-like receptor 7 = biological target: T1, Toll-like receptor 7 (Homo sapiens, UniProt Q9NYK1); test: Antagonist activity at gardiquimod stimulated human TRL7 overexpressed in HEK293 cells assessed as inhibition of NF kappa B/Ap-1 activation preincubated with compound for 30 mins followed by gardiquimod stimulation measured after 22 hrs by SEAP reporter assay; assay type: cell-based
T1 sequence (Q9NYK1 whole entry): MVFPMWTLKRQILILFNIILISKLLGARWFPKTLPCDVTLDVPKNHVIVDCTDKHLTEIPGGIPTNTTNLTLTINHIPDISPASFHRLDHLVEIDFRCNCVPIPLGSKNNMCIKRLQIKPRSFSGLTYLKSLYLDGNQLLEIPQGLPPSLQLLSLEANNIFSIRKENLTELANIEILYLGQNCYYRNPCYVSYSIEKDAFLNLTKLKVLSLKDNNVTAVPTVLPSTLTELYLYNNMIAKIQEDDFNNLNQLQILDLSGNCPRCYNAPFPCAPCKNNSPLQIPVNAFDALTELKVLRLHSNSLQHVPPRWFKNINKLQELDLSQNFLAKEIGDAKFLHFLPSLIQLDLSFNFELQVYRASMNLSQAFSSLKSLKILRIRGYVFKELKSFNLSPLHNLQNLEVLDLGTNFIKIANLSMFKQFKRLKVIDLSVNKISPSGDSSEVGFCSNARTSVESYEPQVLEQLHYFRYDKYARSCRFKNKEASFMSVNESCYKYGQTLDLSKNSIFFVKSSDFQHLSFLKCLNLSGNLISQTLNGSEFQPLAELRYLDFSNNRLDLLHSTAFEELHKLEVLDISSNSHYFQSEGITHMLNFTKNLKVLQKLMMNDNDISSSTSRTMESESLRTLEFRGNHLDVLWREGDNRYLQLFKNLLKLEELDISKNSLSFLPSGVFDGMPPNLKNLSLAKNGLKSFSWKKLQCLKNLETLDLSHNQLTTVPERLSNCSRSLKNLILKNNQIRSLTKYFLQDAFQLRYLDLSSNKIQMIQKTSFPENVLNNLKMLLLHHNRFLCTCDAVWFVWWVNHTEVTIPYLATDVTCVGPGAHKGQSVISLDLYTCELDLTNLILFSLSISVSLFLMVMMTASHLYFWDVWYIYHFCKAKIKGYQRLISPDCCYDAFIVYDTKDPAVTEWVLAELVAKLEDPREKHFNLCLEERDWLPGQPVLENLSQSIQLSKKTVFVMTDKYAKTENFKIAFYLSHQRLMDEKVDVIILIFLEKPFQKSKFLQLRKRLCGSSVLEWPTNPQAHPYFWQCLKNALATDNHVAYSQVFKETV

[1] = Toxicity in MRL/Ipr Systemic lupus erythematosus mouse model assessed as change in body weight at 10 mg/kg, po administered for 8 weeks and measured 24 hrs post final dose; assay type: organism-based; conditions: in vivo, 1368 h
Mus musculus [2] = test: Anti-inflammatory activity against MRL/Ipr Systemic lupus erythematosus mouse model assessed as inhibition of urinary NGAL at 10 mg/kg, po administered for 8 weeks and measured 24 hrs post final dose relative to control; assay type: functional; set-up: scale not given: the % may be the effect or the level left; conditions: time 1368 hrs
Mus musculus [3] = test: Anti-inflammatory activity against MRL/Ipr Systemic lupus erythematosus mouse model assessed as inhibition of anti-Sm/RNP Ab titer at 10 mg/kg, po administered for 8 weeks and measured 24 hrs post final dose relative to control; assay type: functional; set-up: scale not given: the % may be the effect or the level left; conditions: time 1368 hrs
Mus musculus [4] = test: Anti-inflammatory activity against MRL/Ipr Systemic lupus erythematosus mouse model assessed as inhibition of proteinuria at 10 mg/kg, po administered for 8 weeks and measured 24 hrs post final dose relative to control; assay type: functional; set-up: scale not given: the % may be the effect or the level left; conditions: time 1368 hrs
Mus musculus [5] = test: Anti-inflammatory activity against MRL/Ipr Systemic lupus erythematosus mouse model assessed as inhibition of anti-dsDNA Ab titer at 10 mg/kg, po administered for 8 weeks and measured 24 hrs post final dose relative to control; assay type: functional; set-up: scale not given: the % may be the effect or the level left; conditions: time 1368 hrs
[6] = Toxicity in MRL/Ipr Systemic lupus erythematosus mouse model assessed as relative spleen weight at 10 mg/kg, po administered for 8 weeks and measured 24 hrs post final dose relative to control; assay type: organism-based; conditions: in vivo, 1368 h
Toll-like receptor 8 = biological target: T2, Toll-like receptor 8 (Homo sapiens, UniProt Q9NR97); test: Antagonist activity at R848 stimulated human TRL8 overexpressed in HEK293 cells assessed as inhibition of NF kappa B/Ap-1 activation preincubated with compound for 30 mins followed by R848 stimulation measured after 22 hrs by SEAP reporter assay; assay type: cell-based
T2 sequence (Q9NR97 whole entry): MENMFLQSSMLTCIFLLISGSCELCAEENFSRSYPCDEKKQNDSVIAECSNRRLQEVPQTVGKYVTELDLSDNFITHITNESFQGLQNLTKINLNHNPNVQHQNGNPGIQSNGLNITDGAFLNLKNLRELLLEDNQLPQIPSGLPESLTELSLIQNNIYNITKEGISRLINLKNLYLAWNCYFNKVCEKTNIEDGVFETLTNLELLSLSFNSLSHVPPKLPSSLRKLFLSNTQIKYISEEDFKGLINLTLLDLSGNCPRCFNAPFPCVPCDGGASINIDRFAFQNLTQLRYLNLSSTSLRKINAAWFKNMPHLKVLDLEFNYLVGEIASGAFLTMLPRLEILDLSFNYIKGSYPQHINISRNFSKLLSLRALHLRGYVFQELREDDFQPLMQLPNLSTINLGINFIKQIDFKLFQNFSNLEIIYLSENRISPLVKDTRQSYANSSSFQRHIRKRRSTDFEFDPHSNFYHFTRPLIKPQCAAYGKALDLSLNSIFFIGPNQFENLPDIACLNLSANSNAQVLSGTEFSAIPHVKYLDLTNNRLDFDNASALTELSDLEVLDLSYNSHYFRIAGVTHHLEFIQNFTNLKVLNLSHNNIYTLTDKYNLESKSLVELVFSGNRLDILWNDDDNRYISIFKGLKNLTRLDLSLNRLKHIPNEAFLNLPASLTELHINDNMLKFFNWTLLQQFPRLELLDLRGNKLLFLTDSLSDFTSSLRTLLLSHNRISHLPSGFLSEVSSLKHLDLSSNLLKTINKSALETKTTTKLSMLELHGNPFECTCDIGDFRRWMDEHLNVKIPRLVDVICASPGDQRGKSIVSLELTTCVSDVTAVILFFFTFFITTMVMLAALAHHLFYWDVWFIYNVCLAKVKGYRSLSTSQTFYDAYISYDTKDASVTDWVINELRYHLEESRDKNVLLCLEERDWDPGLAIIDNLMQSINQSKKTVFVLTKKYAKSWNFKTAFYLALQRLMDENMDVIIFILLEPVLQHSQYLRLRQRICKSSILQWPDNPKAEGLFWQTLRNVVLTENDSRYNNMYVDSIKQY

Row | Ratio IC50 (Homo sapiens) | IC50 (Toll-like receptor 7) [nM] | Structure (SMILES) | also measured
1 | 1 |  | CCc1c(-c2ccnc(C)c2)[nH]c2c(F)cc(C3CCNCC3)cc12 | 
2 |  | 22 | Cc1cc(-c2[nH]c3ccc(C4CCNCC4)cc3c2C(C)C)cc(C2CC2)n1 | 
3 |  | 3300 | CNCCN1CCC(c2ccc3[nH]c(-c4cncc(OC)c4)c(C)c3c2)CC1 | 
4 |  | 24 | CCc1c(-c2ccnc(C)c2)[nH]c2ccc(C3CCNCC3)cc12 | 
5 |  | 13 | CCc1c(-c2ccnc(C)c2)[nH]c2cc(F)c(C3CCNCC3)c(F)c12 | 
6 |  | 300 | Cc1nc(C)c(C)c(-c2[nH]c3ccc(C4CCNCC4)cc3c2C(C)C)c1C | 
7 | 25 | 28 | Cc1nccc(-c2[nH]c3ccc(C4CCNCC4)cc3c2C(C)C)c1C | 
8 | 1050 |  | Cc1cc(-c2[nH]c3ccc(C4CCNCC4)cc3c2C(C)C)cc(F)n1 | 
9 |  | 14 | CCc1c(-c2ccnc(C)c2)[nH]c2ccc(C3CCNCC3)c(C)c12 | 
10 |  | 0.9 | Cc1cc(-c2[nH]c3ccc(C4CCNCC4)c(F)c3c2C(C)C)cc(C)n1 | 
11 | 370 |  | Cc1cc(-c2[nH]c3ccc(C4CCNCC4)cc3c2C(C)C)c(C)cn1 | 
12 |  | 8.2 | Cc1cc(-c2[nH]c3cc(C)c(C4CCNCC4)cc3c2C(C)C)ccn1 | 
13 | 91 |  | Cc1cnccc1-c1[nH]c2ccc(C3CCNCC3)cc2c1C(C)C | 
14 |  | 1.9 | COc1cc(-c2[nH]c3ccc(C4CCNCC4)cc3c2C(C)C)cc(C)n1 | 
15 | 160 |  | Cc1cc(-c2[nH]c3ccc(C4CCNCC4)cc3c2C(C)C)ccn1 | 
16 |  | 92 | CC(C)c1c(-c2ccnc(C3CC3)c2)[nH]c2ccc(C3CCNCC3)cc12 | 
17 | 19 |  | CC(C)c1c(-c2ccnc(CO)c2)[nH]c2ccc(C3CCNCC3)cc12 | 
18 |  | 200 | CC(C)c1c(-c2ccncc2CO)[nH]c2ccc(C3CCNCC3)cc12 | 
19 | 130 |  | Cc1cc(-c2[nH]c3ccc(C4CCNCC4)cc3c2C(C)C)c(C)c(C)n1 | 
20 |  | > 10000 | CNCCN1CCC(c2ccc3[nH]c(-c4cccnc4)c(C)c3c2)CC1 | 
21 |  |  | C[C@]12C=CC(=O)C=C1CC[C@@H]1[C@@H]2[C@@H](O)C[C@@]2(C)[C@H]1CC[C@]2(O)C(=O)CO [PREDNISOLONE] | Activity [1]: Toxic; Activity (Mus musculus [2]): 74%; Activity (Mus musculus [3]): 79%; Activity (Mus musculus [4]): 77%; Activity (Mus musculus [5]): 85%; Activity [6]: 88%
22 |  | 57 | CCc1cc(-c2[nH]c3ccc(C4CCNCC4)cc3c2C(C)C)cc(C)n1 | 
23 | 77 | 17 | Cc1cc(-c2[nH]c3cc(C(F)(F)F)c(C4CCNCC4)cc3c2C(C)C)ccn1 | IC50 (Toll-like receptor 8): 420 nM
24 |  | 74 | COc1cc(-c2[nH]c3ccc(C4CCNCC4)cc3c2C(C)C)ccn1 | 
25 |  | > 10000 | CNCCN1CCC(c2ccc3[nH]c(-c4ccc(OC)nc4)c(C)c3c2)CC1 | 
26 |  | > 10000 | CNCCN1CCC(c2ccc3[nH]c(-c4cccc(OC)n4)c(C)c3c2)CC1 | 
27 |  | 0.8 | Cc1cc(-c2[nH]c3cc(F)c(C4CCNCC4)cc3c2C(C)C)ccn1 | 
28 |  | 29 | CC(C)c1c(-c2ccncc2)[nH]c2ccc(C3CCNCC3)cc12 | 
